{
  "source": "patent US20240252524A1",
  "about": "(Hovione Scientia Limited, priority 2021, published 2024)",
  "key": {"[1]": {"assay": "Particle size by laser diffraction (Sympatec HELOS) before/after high shear mixing", "type": "physicochemical", "from_the_text": "The particle size data were obtained from a Sympatec module HELOS (Helium-Neon Laser Optical System), dispersion Unit RODOS/M, potent products accessory ASPIROS, lens R5 (4.50 μm-875 μm) and R4 (1.80 μm-350 μm), conditions R5, 0.1 bar-1 bar, 18 mm/s, R4, 3 bar, 18 mm/s"}, "[2]": {"assay": "Stability of ivermectin under the high shear mixer process", "type": "physicochemical", "conditions": "high shear mixer process of the invention", "from_the_text": "Under the conditions set forth in this invention, ivermectin is submitted to high shear forces without suffering decomposition. High shear mixing processes provide stressful conditions which promote decomposition of the compounds submitted to such processes. The stressful conditions involve recirculating mixtures of the compounds with solvents, at very high speed, through mechanical systems which generate unaligned forces, driving to strong collisions between the particles and the mechanical parts of the high shear mixer and between the particles themselves. Such collisions break the particles of the product thus reducing their particle size. A side effect of the mechanical collisions is a significant increase in the temperature during the high shear mixer process. […] In fact, ivermectin is purified with good yields under the high shear process conditions set forth in this invention."}, "[3]": {"conditions": "room temperature, cited from earlier work"}, "[4]": {"conditions": "cited from earlier work"}, "[5]": {"conditions": "cited from earlier work", "remark": "listed apart in the source"}},
  "note": "Several values for one entry are separate records, joined by “and”; a condition that tells them apart may be missing. Identical values can stand only once. Like-named read-outs stand apart in the source and are kept apart here.",
  "data": [
    {"substance": "Ivermectin", "values": [
      {"measurement": "D (90) after high shear mixing", "setting": "[1]; Example 1: ethanol/water/formamide/methylparaben, 2000 RPM, about 3 hours, 0-5° C.", "value": 56, "unit": "μm"},
      {"measurement": "Dv(90) after high shear mixing", "setting": "[1]; Example 2: ethanol/water/formamide/BHA, 2000 RPM, about 3 hours, 0-5° C.", "value": 53, "unit": "μm"},
      {"measurement": "Dv(90) after high shear mixing", "setting": "[1]; Example 3: ethanol (100 ml)/water (50 ml)/formamide/methylparaben, 2000 RPM, about 3 hours, 0-5° C.", "value": 57, "unit": "μm"},
      {"measurement": "Dv(90) after high shear mixing", "setting": "[1]; Example 4: water/isopropanol/formamide/methylparaben, 2000 RPM, about 3 hours, 0-5° C.", "value": 56, "unit": "μm"},
      {"measurement": "Dv(90) after high shear mixing", "setting": "[1]; Example 5: water (16 ml)/ethanol (16 ml)/formamide, 1000 RPM, about 2 hours, 0-5° C.", "value": 42, "unit": "μm"},
      {"measurement": "Dv(90) after high shear mixing", "setting": "[1]; Example 6: water (26 ml)/ethanol (30 ml)/formamide, 1000 RPM, about 2 hours, 0-5° C.", "value": 36, "unit": "μm"},
      {"measurement": "Dv(90) after high shear mixing", "setting": "[1]; Example 7: water (1 ml)/ethanol (30 ml)/formamide, 1000 RPM, about 2 hours, 0-5° C.", "value": 56, "unit": "μm"},
      {"measurement": "D (90) / Dv(90) of starting ivermectin", "setting": "[1]; before high shear mixing", "value": "301 μm and 295 μm and 300 μm"},
      {"measurement": "decomposition under high shear mixer process", "setting": "[2]", "value": "did not decompose the product"},
      {"measurement": "Pharmacopoeia Classification", "setting": "[3]; Acetone", "value": "Soluble"},
      {"measurement": "Solubility", "setting": "[3]; Acetone", "value": 81, "unit": "mg/mL"},
      {"measurement": "Pharmacopoeia Classification", "setting": "[3]; Diethyl ether", "value": "Soluble"},
      {"measurement": "Solubility", "setting": "[3]; Diethyl ether", "value": 61, "unit": "mg/mL"},
      {"measurement": "Pharmacopoeia Classification", "setting": "[3]; Dimethylformamide", "value": "Freely soluble"},
      {"measurement": "Solubility", "setting": "[3]; Dimethylformamide", "value": 510, "unit": "mg/mL"},
      {"measurement": "Pharmacopoeia Classification", "setting": "[3]; Ethanol", "value": "Soluble"},
      {"measurement": "Solubility", "setting": "[3]; Ethanol", "value": 97, "unit": "mg/mL"},
      {"measurement": "Pharmacopoeia Classification", "setting": "[3]; Ethyl acetate", "value": "Freely soluble"},
      {"measurement": "Solubility", "setting": "[3]; Ethyl acetate", "value": 240, "unit": "mg/mL"},
      {"measurement": "Pharmacopoeia Classification", "setting": "[3]; Isopropanol (2-propanol)", "value": "Soluble"},
      {"measurement": "Solubility", "setting": "[3]; Isopropanol (2-propanol)", "value": 70, "unit": "mg/mL"},
      {"measurement": "Pharmacopoeia Classification", "setting": "[3]; Methanol", "value": "Freely soluble"},
      {"measurement": "Solubility", "setting": "[3]; Methanol", "value": 220, "unit": "mg/mL"},
      {"measurement": "Pharmacopoeia Classification", "setting": "[3]; Methyl Ethyl ketone", "value": "Freely soluble"},
      {"measurement": "Solubility", "setting": "[3]; Methyl Ethyl ketone", "value": 320, "unit": "mg/mL"},
      {"measurement": "Pharmacopoeia Classification", "setting": "[3]; Tetrahydrofuran", "value": "Freely soluble"},
      {"measurement": "Solubility", "setting": "[3]; Tetrahydrofuran", "value": 390, "unit": "mg/mL"},
      {"measurement": "Pharmacopoeia Classification", "setting": "[3]; Toluene", "value": "Soluble"},
      {"measurement": "Solubility", "setting": "[3]; Toluene", "value": 63, "unit": "mg/mL"},
      {"measurement": "Pharmacopoeia Classification", "setting": "[3]; Water", "value": "Practically Insoluble"},
      {"measurement": "Solubility", "setting": "[3]; Water", "value": 0.000001, "unit": "mg/mL"},
      {"measurement": "Pharmacopoeia Classification", "setting": "[3]; n-Hexane", "value": "Slightly soluble"},
      {"measurement": "Solubility", "setting": "[3]; n-Hexane", "value": 0.69, "unit": "mg/mL"},
      {"measurement": "Pharmacopoeia Classification", "setting": "[3]; p-Dioxane", "value": "Freely soluble"},
      {"measurement": "Solubility", "setting": "[3]; p-Dioxane", "value": 430, "unit": "mg/mL"},
      {"measurement": "optimum pH for ivermectin stability in solution", "setting": "[4]", "value": 6.3},
      {"measurement": "solubility in water", "setting": "[5]", "value": "low solubility in water"}
    ]}
  ]
}
